Type in all cases: cell-based
The test system of test [1] is A549. Description: Cell viability (CellTiter-Blue, 72 h), A549 lung cancer cells. To be noted: Homo sapiens. The procedure:
(§1) The following cell lines were tested in this example: Lung Cancer (A549, NCI-H460); Pancreatic cancer (PANC1, Mia-Pa-Ca-2); Melanoma (WM115, A375); Ovarian cancer (OVCAR3, SKOV3); Gastric cancer (MKN45, HGC-27); Renal cancer (ACHN) and Bladder Cancer (RT112).
(§2) Each tumour cell line was maintained in vitro in RPMI 1640+10% heat inactivated FBS and 2 mM L-glutamine (growth media) at 37° C. in 5% CO2 and humidified conditions. The cells were harvested, washed, re-suspended into growth medium and counted. The cells were re-suspended into assay media (RPMI 1640+5% heat inactivated FBS+ and 2 mM L-glutamine) at 4×10^4 cells/ml (dependent upon cell type) and plated into the middle 240 wells of 384 well tissue culture plates (Corning CellBind, black-wall plates) 25 μl/well aliquots; 50 μl of growth media was aliquoted into the outer wells. There were 3 plates for each cell line.
(§3) The plates were incubated overnight at 37° C., in 5% humidified CO2.
(§4) The phytocannabinoid test compounds were prepared in 100% DMSO vehicle at a stock concentration of 20 and 40 mM.
(§5) Starting with the 20 mM stock in DMSO, this was serially diluted (2 fold) in DMSO in a 96-well plate, to 20 (no dilution), 10, 5, 2.5, 1.25, 0.625, 0.315, 0.157 and […]. Following this, 10 ul of each compound dilution was diluted into 990 ul of 1% (v/v) FBS media in a deep well block making the final concentrations of 200, 100, 50, 25, 12.5, 6.25, 3.125, 1.56 and 0.79 μM (2× final assay concentrations and 1% DMSO).
(§6) An equal volume of each cannabinoid in the combination (stock concentration 40 mM) was mixed together to make a stock of 20 mM of each cannabinoid in DMSO. This was serially diluted (2 fold) in DMSO in a 96-well plate, to 20 (no dilution), 10, 5, 2.5, 1.25, 0.625, 0.315, 0.157 and […]. Following this, 10 ul of each combination dilution was diluted into 990 ul of 1% (v/v) FBS media in a deep well block making the final concentrations of 200, 100, 50, 25, 12.5, 6.25, 3.125, 1.56 and 0.79 μM (2× final assay concentrations and 1% DMSO).
(§7) Taxotere SOC was prepared in 100% DMSO to give a stock concentration of 10 mM. This was diluted in DMSO from the stock solution to 200 μM, then serially diluted (3-fold) in DMSO to 200 (no dilution), 66.66, 22.22, 7.41, 2.47, 0.82, 0.27, 0.09, 0.03 μM. 10 ul of each of the taxotere dilutions was diluted in 990 ul of 1% (v/v) FBS media making the final concentrations of 2, 0.67, 0.22, 0.074, 0.0247, 0.0082, 0.0027 0.0009, 0.0003 μM (2× final assay concentrations and 1% DMSO).
(§8) The plates were incubated for 72 h at 37° C. in 5% humidified CO2. To develop the plates, at 72 h, 10 μl of CellTiter-Blue™ reagent was added to each test/blank well.
(§9) The plates were incubated at 37° C., 5% humidified CO2. Fluorescence was measured using a Flex II Station plate reader (570 nm excitation wavelength, 600 nm emission wavelength, 590 nm cut-off) after 3 h.
(§10) The phytocannabinoid compounds CBD, CBGA, CBG, CBDA, THCV and THC were tested on a panel of lung (A549, NCI-H460), pancreatic (PANC1, Mia-Pa-Ca-2), melanoma (WM115, A375), ovarian (OVCAR3, SKOV3), gastric (MKN45, HGC-27), renal (ACHN) and bladder (RT112) cancer cell lines according to the protocol for 72 h in media containing 1% FBS.
(§11) The IC50 values for each phytocannabinoid and combination of CBD with the other phytocannabinoids was calculated for each cell line. The raw data values expressed in relative fluorescent units were normalised to the vehicle for each individual plate and any reduction in fluorescence indicated a decrease in viability.
(§12) This calculation was as described in Example 1 above.

The subject of test [2] is MKN45. The test is described as follows: Cell viability (CellTiter-Blue, 72 h), MKN45 gastric cancer cells. To be noted: Homo sapiens, MKN-45. The procedure:
as §1, §2, §3, §4, §5, §6
(§13) Cisplatin (stock of 1 mg/ml=3.33 mM in water) was diluted in 1% FBS media to give a stock concentration of 1 mM. This was then diluted in 1% FBS media from the stock solution to 200 μM, then serially diluted (3-fold) in 1% FBS media to 200 (no dilution), 66.66, 22.22, 7.41, 2.47, 0.82, 0.27, 0.09, 0.03 μM (2× final assay concentrations; no DMSO).
as §8, §9, §10, §11, §12
A general note: Alamar Blue is a resazurin reagent that responds to reducing activity.

Test [3] relates to WM115. The test is described as follows: Cell viability (CellTiter-Blue, 72 h), WM115 melanoma cells. To be noted: Homo sapiens, WM-115, WM115, 1% FBS. The procedure: as §1, §2, §3, §4, §5, §6, §13, §8, §9, §10, §11, §12
Test [4] relates to NCI-H460. The test is described as follows: Cell viability (CellTiter-Blue, 72 h), NCI-H460 lung cancer cells. To be noted: Homo sapiens. As for the experimental part: as §1, §2, §3, §4, §5, §6, §7, §8, §9, §10, §11, §12
The subject of test [5] is A375. Description: Cell viability (CellTiter-Blue, 72 h), A375 melanoma cells. To be noted: Homo sapiens, A-375, A375, 1% FBS. The procedure: as §1, §2, §3, §4, §5, §6, §13, §8, §9, §10, §11, §12
Test [6] relates to Mia-Pa-Ca-2. Description: Cell viability (CellTiter-Blue, 72 h), Mia-Pa-Ca-2 pancreatic cancer cells. To be noted: Homo sapiens. As for the experimental part:
as §1, §2, §3, §4, §5, §6
Gemcitabine SOC was prepared in 100% DMSO to give a stock concentration of 20 mM. This was then serially diluted (3 fold) in DMSO in a 96-well plate, to 20 (no dilution), 6.6, 2.2, 0.741, 0.247, 0.082, 0.027, 0.009 and 0.003 mM. Following this, 10 ul of each dilution was further diluted into 990 ul of 1% (v/v) FBS media making the final concentrations of 200 (no dilution), 66.66, 22.22, 7.41, 2.47, 0.82, 0.27, 0.09, 0.03 μM (2× final assay concentrations and 1% DMSO).
as §8, §9, §10, §11, §12

The mark [7] stands for this setting: A549, 72 h, read-out: Cell line IC50 value.
The mark [8] stands for this setting: A549, read-out: Dm (median effect dose).
The mark [9] stands for this setting: MKN45, 1% FBS, 72 h, read-out: Cell line IC50 value.
Where [10] appears, read: MKN45 cells, 1% FBS, read-out: Dm (potency, median effect).
Setting [11] is: 72 h, read-out: Cell line IC50 value.
Where [12] appears, read: read-out: Dm (median effect dose).
Where [13] appears, read: NCI-H460, 72 h, read-out: Cell line IC50 value.
Setting [14] is: NCI-H460, read-out: Dm (median effect dose).
The mark [15] stands for this setting: MIA PaCa-2, 72 h, read-out: Cell line IC50 value.
The mark [16] stands for this setting: MIA PaCa-2, read-out: Dm (median effect dose).

Where two headings read alike, the source gives them in different places.

Regarding `C=C(C)[C@@H]1CCC(C)=C[C@H]1c1c(O)cc(CCCCC)cc1O` [CBD, Cannabidiol], the IC50 in test [1] (setting [7]) is 3.2 µM; in test [1] (setting [8]), 2.87 µM; in test [2] (setting [9]), 3.4 µM; in test [2] (setting [10]), 3.91 µM; in test [3] (setting [11]), 2.4 µM; in test [3] (setting [12]), 2.77 µM. Also, the IC50 in test [4] (setting [13]) stood at 2.5 µM; in test [4] (setting [14]) it was 2.55 µM; in test [5] (setting [11]), 2.9 µM; in test [5] (setting [12]), 2.66 µM; in test [6] (setting [15]) it was 2.6 µM; in test [6] (setting [16]), 2 µM.
Take `C=C(C)[C@@H]1CCC(C)=C[C@H]1c1c(O)cc(CCCCC)c(C(=O)O)c1O` [CBDA, Cannabidiolic acid]: the IC50 in test [1] (setting [7]) is 8.5 µM; in test [1] (setting [8]), 7.6 µM; in test [2] (setting [9]) it was 8.8 µM; in test [2] (setting [10]), 8.04 µM; in test [3] (setting [11]) it was 2.1 µM; in test [3] (setting [12]) it was 14.7 µM. For the same compound, the IC50 worked out at 7.3 µM in test [4] (setting [13]); 6.6 µM in test [4] (setting [14]); 10.2 µM in test [5] (setting [11]); 9.78 µM in test [5] (setting [12]); 7.9 µM in test [6] (setting [15]); 7.09 µM in test [6] (setting [16]).
Turning to `CCCCCc1cc(O)c(C/C=C(\C)CCC=C(C)C)c(O)c1` [CBG, Cannabigerol], the IC50 in test [1] (setting [7]) was determined as 4.3 µM; in test [1] (setting [8]), 4.23 µM; in test [2] (setting [9]), 4.3 µM; in test [2] (setting [10]), 4.16 µM; in test [3] (setting [11]), 3.1 µM; in test [3] (setting [12]), 3.1 µM. Further, the IC50 in test [4] (setting [13]) is 4 µM; in test [4] (setting [14]), 3.96 µM; in test [5] (setting [11]) it was 2.1 µM; in test [5] (setting [12]) it was 1.89 µM; in test [6] (setting [15]), 2.2 µM; in test [6] (setting [16]) it was 2.06 µM.
On to `CCCCCc1cc(O)c(C/C=C(\C)CCC=C(C)C)c(O)c1C(=O)O` [CBGA, Cannabigerolic acid], for which the IC50 in test [1] (setting [7]) is 6.1 µM; in test [1] (setting [8]) it was 6.89 µM; in test [2] (setting [9]) it was 6.5 µM; in test [2] (setting [10]), 6.4 µM; in test [3] (setting [11]) it was 1.5 µM; in test [3] (setting [12]), 12.9 µM. In addition, the IC50 was 6.2 µM in test [4] (setting [13]); 4.03 µM in test [4] (setting [14]); 7.3 µM in test [5] (setting [11]); 6.66 µM in test [5] (setting [12]); 8.9 µM in test [6] (setting [15]); 8.67 µM in test [6] (setting [16]).
For `CCCCCc1cc(O)c2c(c1)OC(C)(C)[C@@H]1CCC(C)=C[C@@H]21` [THC, Tetrahydrocannabinol, reference compound], the IC50 was found to be 5.5 µM in test [1] (setting [7]); 4.08 µM in test [1] (setting [8]); 4.2 µM in test [2] (setting [9]); 4.42 µM in test [2] (setting [10]); 2.9 µM in test [3] (setting [11]); 3.17 µM in test [3] (setting [12]). The IC50 in test [4] (setting [13]) came out at 3.8 µM; in test [4] (setting [14]), 3.28 µM; in test [5] (setting [11]), 2.7 µM; in test [5] (setting [12]) it was 2.47 µM; in test [6] (setting [15]), 2.9 µM; in test [6] (setting [16]), 2.64 µM.
As to `CCCc1cc(O)c2c(c1)OC(C)(C)[C@@H]1CCC(C)=C[C@@H]21` [THCV, Tetrahydrocannabivarin], the IC50 in test [1] (setting [7]) worked out at 7.4 µM; in test [1] (setting [8]), 6.59 µM; in test [2] (setting [9]) it was 6.5 µM; in test [2] (setting [10]) it was 6.88 µM; in test [3] (setting [11]), 6.5 µM; in test [3] (setting [12]) it was 6.43 µM. The IC50 in test [4] (setting [13]) is 4.6 µM; in test [4] (setting [14]), 4.53 µM; in test [5] (setting [11]), 5 µM; in test [5] (setting [12]), 5.54 µM; in test [6] (setting [15]), 5.2 µM; in test [6] (setting [16]), 4.79 µM.
Consider `CC(=O)O[C@@]12CO[C@@H]1C[C@H](O)[C@@]1(C)C(=O)[C@H](O)C3=C(C)[C@@H](OC(=O)[C@H](O)[C@@H](NC(=O)OC(C)(C)C)c4ccccc4)C[C@@](O)([C@@H](OC(=O)c4ccccc4)[C@H]21)C3(C)C` [Taxotere, Docetaxel, reference compound], for which the results for the IC50 in test [1] (setting [7]) and in test [4] (setting [13]) were 0.0006 µM and 0.0011 µM, respectively.
